Test results: US20240148678A1, “SUSTAINED RELEASE INJECTABLE THERAPEUTIC FORMULATIONS USING APROTIC POLAR SOLVENTS” (Xeris Pharmaceuticals, Inc., priority 2022, published 2024)
Where “and” joins values, the source holds several entries; their conditions need not be identical. Equal values may be shown once.

Legend:
[1] = cited from earlier work
[2] = Storage stability of levothyroxine in DMSO formulations; type: physicochemical; details: 5 mg/mL in DMSO without ionization stabilizing excipient; even in refrigeration
Method: These formulation studies are described in detail in U.S. Appl. No. 63/380,090, entitled “Stable Levothyroxine Formulations in Aprotic Polar Solvents,” filed on even day herewith, which is incorporated herein by reference in its entirety. […] The overall moisture content of the formulation was ˜5% when prepared using 1.0 N H2SO4. The moisture content of this formulation was due almost entirely to the added sulfuric acid (with a minor contribution from the trehalose dihydrate), which at 26 mM (from a 1.0 N (0.5 M) stock solution) results in a moisture content ˜5% (w/w). When prepared using concentrated acid (e.g., 10 N), the overall moisture content of the formulation could be reduced to about ˜1% without any significant impact on storage stability. Other exemplary formulations were prepared at a concentration of 5 mg/mL levothyroxine in DMSO that had been first acidified with about 13-15 mM sulfuric acid. These formulations were then used in levothyroxine pharmacokinetic pre-clinical studies using laboratory animals.

Compound | solubility in DMSO ([1]; DMSO) | solubility in aqueous/physiological environments ([1]; aqueous/physiological) | stability when solubilized directly in DMSO [2]
CCOc1ccccc1OCCN[C@H](C)Cc1ccc(OC)c(S(N)(=O)=O)c1 [Tamsulosin, tamsulosin] | 100 mM and > 40 mg/ml | ~10 mM and 4 mg/ml | 
N[C@@H](Cc1cc(I)c(Oc2cc(I)c(O)c(I)c2)c(I)c1)C(=O)O [levothyroxine] |  |  | discolor and form degradation products within one day of storage
